Test results reported in ChEMBL document CHEMBL5579851, “Synthesis and antifungal evaluation of novel triazole derivatives bearing a pyrazole-methoxyl moiety” (Eur J Med Chem, 2024).
In brackets after ≈: the same amount, converted by molar mass.

system: Candida parapsilosis; assay: Antifungal activity against Candida parapsilosis 22019 assessed as inhibition of fungal growth incubated for 48 hrs by CLSI based broth microdilution assay; type: functional; conditions: Lodderomyces parapsilosis

Compound	MIC
C[C@@H](OCc1ccn(Cc2c(F)cccc2F)n1)[C@](O)(Cn1cncn1)c1ccc(F)cc1F	0.5 µg/mL (≈ 1.05 µM)
Cc1cccc(Cn2ccc(CO[C@H](C)[C@](O)(Cn3cncn3)c3ccc(F)cc3F)n2)c1	0.5 µg/mL (≈ 1.1 µM)
C[C@@H](OCc1ccn(Cc2ccc(OC(F)(F)F)cc2)n1)[C@](O)(Cn1cncn1)c1ccc(F)cc1F	0.5 µg/mL (≈ 0.955 µM)
C[C@@H](OCc1ccn(Cc2cccc(F)c2)n1)[C@](O)(Cn1cncn1)c1ccc(F)cc1F	0.5 µg/mL (≈ 1.09 µM)
C[C@@H](OCc1ccn(Cc2c(Cl)cccc2Cl)n1)[C@](O)(Cn1cncn1)c1ccc(F)cc1F	1 µg/mL (≈ 1.97 µM)
C[C@@H](OCc1ccn(Cc2cccc(F)c2F)n1)[C@](O)(Cn1cncn1)c1ccc(F)cc1F	0.5 µg/mL (≈ 1.05 µM)
C[C@@H](OCc1ccn(Cc2ccc(F)cc2F)n1)[C@](O)(Cn1cncn1)c1ccc(F)cc1F	0.5 µg/mL (≈ 1.05 µM)
COc1ccc(Cn2ccc(CO[C@H](C)[C@](O)(Cn3cncn3)c3ccc(F)cc3F)n2)cc1	1 µg/mL (≈ 2.13 µM)
C[C@@H](OCc1ccn(Cc2cccc(Cl)c2Cl)n1)[C@](O)(Cn1cncn1)c1ccc(F)cc1F	0.25 µg/mL (≈ 0.492 µM)
C[C@@H](OCc1ccn(Cc2cccc(Cl)c2)n1)[C@](O)(Cn1cncn1)c1ccc(F)cc1F	0.5 µg/mL (≈ 1.06 µM)
C[C@@H](OCc1ccn(Cc2ccccc2Cl)n1)[C@](O)(Cn1cncn1)c1ccc(F)cc1F	0.5 µg/mL (≈ 1.06 µM)
C[C@@H](OCc1ccn(Cc2ccc(C(F)(F)F)cc2)n1)[C@](O)(Cn1cncn1)c1ccc(F)cc1F	0.5 µg/mL (≈ 0.985 µM)

system: Candida tropicalis; assay: Antifungal activity against Candida tropicalis 8915 assessed as inhibition of fungal growth incubated for 48 hrs by CLSI based broth microdilution assay; type: functional; conditions: not given

Compound	MIC
C[C@@H](OCc1ccn(Cc2c(F)cccc2F)n1)[C@](O)(Cn1cncn1)c1ccc(F)cc1F	0.25 µg/mL (≈ 0.526 µM)
Cc1cccc(Cn2ccc(CO[C@H](C)[C@](O)(Cn3cncn3)c3ccc(F)cc3F)n2)c1	> 64 µg/mL
C[C@@H](OCc1ccn(Cc2ccc(OC(F)(F)F)cc2)n1)[C@](O)(Cn1cncn1)c1ccc(F)cc1F	0.5 µg/mL (≈ 0.955 µM)
C[C@@H](OCc1ccn(Cc2cccc(F)c2)n1)[C@](O)(Cn1cncn1)c1ccc(F)cc1F	64 µg/mL (≈ 140 µM)
C[C@@H](OCc1ccn(Cc2c(Cl)cccc2Cl)n1)[C@](O)(Cn1cncn1)c1ccc(F)cc1F	32 µg/mL (≈ 62.9 µM)
C[C@@H](OCc1ccn(Cc2cccc(F)c2F)n1)[C@](O)(Cn1cncn1)c1ccc(F)cc1F	0.25 µg/mL (≈ 0.526 µM)
C[C@@H](OCc1ccn(Cc2ccc(F)cc2F)n1)[C@](O)(Cn1cncn1)c1ccc(F)cc1F	0.25 µg/mL (≈ 0.526 µM)
COc1ccc(Cn2ccc(CO[C@H](C)[C@](O)(Cn3cncn3)c3ccc(F)cc3F)n2)cc1	> 64 µg/mL
C[C@@H](OCc1ccn(Cc2cccc(Cl)c2Cl)n1)[C@](O)(Cn1cncn1)c1ccc(F)cc1F	16 µg/mL (≈ 31.5 µM)
C[C@@H](OCc1ccn(Cc2cccc(Cl)c2)n1)[C@](O)(Cn1cncn1)c1ccc(F)cc1F	0.25 µg/mL (≈ 0.528 µM)
C[C@@H](OCc1ccn(Cc2ccccc2Cl)n1)[C@](O)(Cn1cncn1)c1ccc(F)cc1F	32 µg/mL (≈ 67.5 µM)
C[C@@H](OCc1ccn(Cc2ccc(C(F)(F)F)cc2)n1)[C@](O)(Cn1cncn1)c1ccc(F)cc1F	0.5 µg/mL (≈ 0.985 µM)

system: Nakaseomyces glabratus; assay: Antifungal activity against Candida glabrata 537 assessed as inhibition of fungal growth incubated for 48 hrs by CLSI based broth microdilution assay; type: functional; conditions: not given

Compound	MIC
C[C@@H](OCc1ccn(Cc2c(F)cccc2F)n1)[C@](O)(Cn1cncn1)c1ccc(F)cc1F	0.5 µg/mL (≈ 1.05 µM)
Cc1cccc(Cn2ccc(CO[C@H](C)[C@](O)(Cn3cncn3)c3ccc(F)cc3F)n2)c1	4 µg/mL (≈ 8.82 µM)
C[C@@H](OCc1ccn(Cc2ccc(OC(F)(F)F)cc2)n1)[C@](O)(Cn1cncn1)c1ccc(F)cc1F	2 µg/mL (≈ 3.82 µM)
C[C@@H](OCc1ccn(Cc2cccc(F)c2)n1)[C@](O)(Cn1cncn1)c1ccc(F)cc1F	0.25 µg/mL (≈ 0.547 µM)
C[C@@H](OCc1ccn(Cc2c(Cl)cccc2Cl)n1)[C@](O)(Cn1cncn1)c1ccc(F)cc1F	0.5 µg/mL (≈ 0.984 µM)
C[C@@H](OCc1ccn(Cc2cccc(F)c2F)n1)[C@](O)(Cn1cncn1)c1ccc(F)cc1F	0.25 µg/mL (≈ 0.526 µM)
C[C@@H](OCc1ccn(Cc2ccc(F)cc2F)n1)[C@](O)(Cn1cncn1)c1ccc(F)cc1F	0.25 µg/mL (≈ 0.526 µM)
COc1ccc(Cn2ccc(CO[C@H](C)[C@](O)(Cn3cncn3)c3ccc(F)cc3F)n2)cc1	0.5 µg/mL (≈ 1.06 µM)
C[C@@H](OCc1ccn(Cc2cccc(Cl)c2Cl)n1)[C@](O)(Cn1cncn1)c1ccc(F)cc1F	0.5 µg/mL (≈ 0.984 µM)
C[C@@H](OCc1ccn(Cc2cccc(Cl)c2)n1)[C@](O)(Cn1cncn1)c1ccc(F)cc1F	0.5 µg/mL (≈ 1.06 µM)
C[C@@H](OCc1ccn(Cc2ccccc2Cl)n1)[C@](O)(Cn1cncn1)c1ccc(F)cc1F	0.5 µg/mL (≈ 1.06 µM)
C[C@@H](OCc1ccn(Cc2ccc(C(F)(F)F)cc2)n1)[C@](O)(Cn1cncn1)c1ccc(F)cc1F	1 µg/mL (≈ 1.97 µM)

system: Candida albicans; assay: Antifungal activity against Candida albicans SC5314 assessed as inhibition of fungal growth incubated for 48 hrs by CLSI based broth microdilution assay; type: functional; conditions: not given

Compound	MIC
C[C@@H](OCc1ccn(Cc2c(F)cccc2F)n1)[C@](O)(Cn1cncn1)c1ccc(F)cc1F	≤ 0.125 µg/mL
Cc1cccc(Cn2ccc(CO[C@H](C)[C@](O)(Cn3cncn3)c3ccc(F)cc3F)n2)c1	≤ 0.125 µg/mL
C[C@@H](OCc1ccn(Cc2ccc(OC(F)(F)F)cc2)n1)[C@](O)(Cn1cncn1)c1ccc(F)cc1F	0.25 µg/mL (≈ 0.478 µM)
C[C@@H](OCc1ccn(Cc2cccc(F)c2)n1)[C@](O)(Cn1cncn1)c1ccc(F)cc1F	≤ 0.125 µg/mL
C[C@@H](OCc1ccn(Cc2c(Cl)cccc2Cl)n1)[C@](O)(Cn1cncn1)c1ccc(F)cc1F	0.25 µg/mL (≈ 0.492 µM)
C[C@@H](OCc1ccn(Cc2cccc(F)c2F)n1)[C@](O)(Cn1cncn1)c1ccc(F)cc1F	≤ 0.125 µg/mL
C[C@@H](OCc1ccn(Cc2ccc(F)cc2F)n1)[C@](O)(Cn1cncn1)c1ccc(F)cc1F	≤ 0.125 µg/mL
COc1ccc(Cn2ccc(CO[C@H](C)[C@](O)(Cn3cncn3)c3ccc(F)cc3F)n2)cc1	≤ 0.125 µg/mL
C[C@@H](OCc1ccn(Cc2cccc(Cl)c2Cl)n1)[C@](O)(Cn1cncn1)c1ccc(F)cc1F	0.25 µg/mL (≈ 0.492 µM)
C[C@@H](OCc1ccn(Cc2cccc(Cl)c2)n1)[C@](O)(Cn1cncn1)c1ccc(F)cc1F	≤ 0.125 µg/mL
C[C@@H](OCc1ccn(Cc2ccccc2Cl)n1)[C@](O)(Cn1cncn1)c1ccc(F)cc1F	≤ 0.125 µg/mL
C[C@@H](OCc1ccn(Cc2ccc(C(F)(F)F)cc2)n1)[C@](O)(Cn1cncn1)c1ccc(F)cc1F	0.25 µg/mL (≈ 0.493 µM)

system: Cryptococcus neoformans; assay: Antifungal activity against Cryptococcus neoformans 32609 assessed as inhibition of fungal growth incubated for 72 hrs by CLSI based broth microdilution assay; type: functional; conditions: not given

Compound	MIC
C[C@@H](OCc1ccn(Cc2c(F)cccc2F)n1)[C@](O)(Cn1cncn1)c1ccc(F)cc1F	0.5 µg/mL (≈ 1.05 µM)
Cc1cccc(Cn2ccc(CO[C@H](C)[C@](O)(Cn3cncn3)c3ccc(F)cc3F)n2)c1	0.5 µg/mL (≈ 1.1 µM)
C[C@@H](OCc1ccn(Cc2ccc(OC(F)(F)F)cc2)n1)[C@](O)(Cn1cncn1)c1ccc(F)cc1F	0.5 µg/mL (≈ 0.955 µM)
C[C@@H](OCc1ccn(Cc2cccc(F)c2)n1)[C@](O)(Cn1cncn1)c1ccc(F)cc1F	0.25 µg/mL (≈ 0.547 µM)
C[C@@H](OCc1ccn(Cc2c(Cl)cccc2Cl)n1)[C@](O)(Cn1cncn1)c1ccc(F)cc1F	0.25 µg/mL (≈ 0.492 µM)
C[C@@H](OCc1ccn(Cc2cccc(F)c2F)n1)[C@](O)(Cn1cncn1)c1ccc(F)cc1F	0.5 µg/mL (≈ 1.05 µM)
C[C@@H](OCc1ccn(Cc2ccc(F)cc2F)n1)[C@](O)(Cn1cncn1)c1ccc(F)cc1F	0.5 µg/mL (≈ 1.05 µM)
COc1ccc(Cn2ccc(CO[C@H](C)[C@](O)(Cn3cncn3)c3ccc(F)cc3F)n2)cc1	0.5 µg/mL (≈ 1.06 µM)
C[C@@H](OCc1ccn(Cc2cccc(Cl)c2Cl)n1)[C@](O)(Cn1cncn1)c1ccc(F)cc1F	0.5 µg/mL (≈ 0.984 µM)
C[C@@H](OCc1ccn(Cc2cccc(Cl)c2)n1)[C@](O)(Cn1cncn1)c1ccc(F)cc1F	0.5 µg/mL (≈ 1.06 µM)
C[C@@H](OCc1ccn(Cc2ccccc2Cl)n1)[C@](O)(Cn1cncn1)c1ccc(F)cc1F	0.25 µg/mL (≈ 0.528 µM)
C[C@@H](OCc1ccn(Cc2ccc(C(F)(F)F)cc2)n1)[C@](O)(Cn1cncn1)c1ccc(F)cc1F	0.5 µg/mL (≈ 0.985 µM)

system: Pichia kudriavzevii; assay: Antifungal activity against Candida krusei 4996 assessed as inhibition of fungal growth incubated for 48 hrs by CLSI based broth microdilution assay; type: functional; conditions: not given

Compound	MIC
C[C@@H](OCc1ccn(Cc2c(F)cccc2F)n1)[C@](O)(Cn1cncn1)c1ccc(F)cc1F	16 µg/mL (≈ 33.7 µM)
Cc1cccc(Cn2ccc(CO[C@H](C)[C@](O)(Cn3cncn3)c3ccc(F)cc3F)n2)c1	8 µg/mL (≈ 17.6 µM)
C[C@@H](OCc1ccn(Cc2ccc(OC(F)(F)F)cc2)n1)[C@](O)(Cn1cncn1)c1ccc(F)cc1F	2 µg/mL (≈ 3.82 µM)
C[C@@H](OCc1ccn(Cc2cccc(F)c2)n1)[C@](O)(Cn1cncn1)c1ccc(F)cc1F	4 µg/mL (≈ 8.74 µM)
C[C@@H](OCc1ccn(Cc2c(Cl)cccc2Cl)n1)[C@](O)(Cn1cncn1)c1ccc(F)cc1F	8 µg/mL (≈ 15.7 µM)
C[C@@H](OCc1ccn(Cc2cccc(F)c2F)n1)[C@](O)(Cn1cncn1)c1ccc(F)cc1F	8 µg/mL (≈ 16.8 µM)
C[C@@H](OCc1ccn(Cc2ccc(F)cc2F)n1)[C@](O)(Cn1cncn1)c1ccc(F)cc1F	4 µg/mL (≈ 8.41 µM)
COc1ccc(Cn2ccc(CO[C@H](C)[C@](O)(Cn3cncn3)c3ccc(F)cc3F)n2)cc1	8 µg/mL (≈ 17 µM)
C[C@@H](OCc1ccn(Cc2cccc(Cl)c2Cl)n1)[C@](O)(Cn1cncn1)c1ccc(F)cc1F	8 µg/mL (≈ 15.7 µM)
C[C@@H](OCc1ccn(Cc2cccc(Cl)c2)n1)[C@](O)(Cn1cncn1)c1ccc(F)cc1F	4 µg/mL (≈ 8.44 µM)
C[C@@H](OCc1ccn(Cc2ccccc2Cl)n1)[C@](O)(Cn1cncn1)c1ccc(F)cc1F	8 µg/mL (≈ 16.9 µM)
C[C@@H](OCc1ccn(Cc2ccc(C(F)(F)F)cc2)n1)[C@](O)(Cn1cncn1)c1ccc(F)cc1F	4 µg/mL (≈ 7.88 µM)

system: Candida albicans; assay: Antifungal activity against Candida albicans 10231 assessed as inhibition of fungal growth incubated for 48 hrs by CLSI based broth microdilution assay; type: functional; conditions: not given

Compound	MIC
C[C@@H](OCc1ccn(Cc2c(F)cccc2F)n1)[C@](O)(Cn1cncn1)c1ccc(F)cc1F	0.5 µg/mL (≈ 1.05 µM)
Cc1cccc(Cn2ccc(CO[C@H](C)[C@](O)(Cn3cncn3)c3ccc(F)cc3F)n2)c1	0.25 µg/mL (≈ 0.551 µM)
C[C@@H](OCc1ccn(Cc2ccc(OC(F)(F)F)cc2)n1)[C@](O)(Cn1cncn1)c1ccc(F)cc1F	0.25 µg/mL (≈ 0.478 µM)
C[C@@H](OCc1ccn(Cc2cccc(F)c2)n1)[C@](O)(Cn1cncn1)c1ccc(F)cc1F	≤ 0.125 µg/mL
C[C@@H](OCc1ccn(Cc2c(Cl)cccc2Cl)n1)[C@](O)(Cn1cncn1)c1ccc(F)cc1F	0.5 µg/mL (≈ 0.984 µM)
C[C@@H](OCc1ccn(Cc2cccc(F)c2F)n1)[C@](O)(Cn1cncn1)c1ccc(F)cc1F	0.25 µg/mL (≈ 0.526 µM)
C[C@@H](OCc1ccn(Cc2ccc(F)cc2F)n1)[C@](O)(Cn1cncn1)c1ccc(F)cc1F	0.25 µg/mL (≈ 0.526 µM)
COc1ccc(Cn2ccc(CO[C@H](C)[C@](O)(Cn3cncn3)c3ccc(F)cc3F)n2)cc1	0.25 µg/mL (≈ 0.532 µM)
C[C@@H](OCc1ccn(Cc2cccc(Cl)c2Cl)n1)[C@](O)(Cn1cncn1)c1ccc(F)cc1F	≤ 0.125 µg/mL
C[C@@H](OCc1ccn(Cc2cccc(Cl)c2)n1)[C@](O)(Cn1cncn1)c1ccc(F)cc1F	≤ 0.125 µg/mL
C[C@@H](OCc1ccn(Cc2ccccc2Cl)n1)[C@](O)(Cn1cncn1)c1ccc(F)cc1F	0.25 µg/mL (≈ 0.528 µM)
C[C@@H](OCc1ccn(Cc2ccc(C(F)(F)F)cc2)n1)[C@](O)(Cn1cncn1)c1ccc(F)cc1F	≤ 0.125 µg/mL
